What was measured:
[1] = system: Tyrosine-protein kinase ABL1 (Homo sapiens), P00519 [F317I]; conditions: Compound concentration 1000.0 nM
[2] = system: Tyrosine-protein kinase ABL1 (Homo sapiens), P00519 [F317L]; conditions: Compound concentration 1000.0 nM
[3] = system: Tyrosine-protein kinase ABL1 (Homo sapiens), P00519 [T315I]; conditions: Compound concentration 1000.0 nM
[4] = molecular target: Activin receptor type-1B (Homo sapiens) (UniProt P36896); conditions: Compound concentration 1000.0 nM
[5] = molecular target: Aurora kinase C (Homo sapiens) (UniProt Q9UQB9); conditions: Compound concentration 1000.0 nM
[6] = molecular target: Tyrosine-protein kinase receptor UFO (Homo sapiens) (UniProt P30530); conditions: Compound concentration 1000.0 nM
[7] = molecular target: Bone morphogenetic protein receptor type-1A (Homo sapiens) (UniProt P36894); conditions: Compound concentration 1000.0 nM
[8] = molecular target: Serine/threonine-protein kinase B-raf (Homo sapiens) (UniProt P15056); conditions: Compound concentration 1000.0 nM
[9] = molecular target: Calcium/calmodulin-dependent protein kinase type II subunit beta (Homo sapiens) (UniProt Q13554); conditions: Compound concentration 1000.0 nM
[10] = molecular target: Cyclin-dependent kinase 4 (Homo sapiens) (UniProt P11802); conditions: Compound concentration 1000.0 nM
[11] = molecular target: Dual specificity protein kinase CLK4 (Homo sapiens) (UniProt Q9HAZ1); conditions: Compound concentration 1000.0 nM
[12] = molecular target: Megakaryocyte-associated tyrosine-protein kinase (Homo sapiens) (UniProt P42679); conditions: Compound concentration 1000.0 nM
[13] = molecular target: Epithelial discoidin domain-containing receptor 1 (Homo sapiens) (UniProt Q08345); conditions: Compound concentration 1000.0 nM
[14] = molecular target: Serine/threonine-protein kinase 17B (Homo sapiens) (UniProt O94768); conditions: Compound concentration 1000.0 nM
[15] = system: Epidermal growth factor receptor (Homo sapiens), P00533 [UNDEFINED MUTATION]; conditions: Compound concentration 1000.0 nM
[16] = molecular target: Eukaryotic translation initiation factor 2-alpha kinase 1 (Homo sapiens) (UniProt Q9BQI3); conditions: Compound concentration 1000.0 nM
[17] = molecular target: Ephrin type-B receptor 4 (Homo sapiens) (UniProt P54760); conditions: Compound concentration 1000.0 nM
[18] = molecular target: Fibroblast growth factor receptor 3 (Homo sapiens) (UniProt P22607); conditions: Compound concentration 1000.0 nM
[19] = system: Receptor-type tyrosine-protein kinase FLT3 (Homo sapiens), P36888 [K663Q]; conditions: Compound concentration 1000.0 nM
[20] = molecular target: Cyclin-G-associated kinase (Homo sapiens) (UniProt O14976); conditions: Compound concentration 1000.0 nM
[21] = molecular target: Serine/threonine-protein kinase haspin (Homo sapiens) (UniProt Q8TF76); conditions: Compound concentration 1000.0 nM
[22] = molecular target: Insulin receptor-related protein (Homo sapiens) (UniProt P14616); conditions: Compound concentration 1000.0 nM
[23] = molecular target: LIM domain kinase 1 (Homo sapiens) (UniProt P53667); conditions: Compound concentration 1000.0 nM
[24] = molecular target: Mitogen-activated protein kinase kinase kinase kinase 5 (Homo sapiens) (UniProt Q9Y4K4); conditions: Compound concentration 1000.0 nM
[25] = molecular target: Dual specificity mitogen-activated protein kinase kinase 1 (Homo sapiens) (UniProt Q02750); conditions: Compound concentration 1000.0 nM
[26] = molecular target: Serine/threonine-protein kinase MRCK alpha (Homo sapiens) (UniProt Q5VT25); conditions: Compound concentration 1000.0 nM
[27] = molecular target: Serine/threonine-protein kinase NIM1 (Homo sapiens) (UniProt Q8IY84); conditions: Compound concentration 1000.0 nM
[28] = molecular target: Serine/threonine-protein kinase PAK 6 (Homo sapiens) (UniProt Q9NQU5); conditions: Compound concentration 1000.0 nM
[29] = molecular target: Phosphorylase b kinase gamma catalytic chain, skeletal muscle/heart isoform (Homo sapiens) (UniProt Q16816); conditions: Compound concentration 1000.0 nM
[30] = system: Phosphatidylinositol 4,5-bisphosphate 3-kinase catalytic subunit alpha isoform (Homo sapiens), P42336 [Q546K]; conditions: Compound concentration 1000.0 nM
[31] = molecular target: Phosphatidylinositol 5-phosphate 4-kinase type-2 beta (Homo sapiens) (UniProt P78356); conditions: Compound concentration 1000.0 nM
[32] = molecular target: Protein kinase C theta type (Homo sapiens) (UniProt Q04759); conditions: Compound concentration 1000.0 nM
[33] = molecular target: cGMP-dependent protein kinase 2 (Homo sapiens) (UniProt Q13237); conditions: Compound concentration 1000.0 nM
[34] = molecular target: Serine/threonine-protein kinase RIO2 (Homo sapiens) (UniProt Q9BVS4); conditions: Compound concentration 1000.0 nM
[35] = molecular target: Serine/threonine-protein kinase RIO3 (Homo sapiens) (UniProt O14730); conditions: Compound concentration 1000.0 nM
[36] = molecular target: Rho-associated protein kinase 2 (Homo sapiens) (UniProt O75116); conditions: Compound concentration 1000.0 nM
[37] = molecular target: Ribosomal protein S6 kinase alpha-6 (Homo sapiens) (UniProt Q9UK32); conditions: Compound concentration 1000.0 nM
[38] = molecular target: Serine/threonine-protein kinase Sgk1 (Homo sapiens) (UniProt O00141); conditions: Compound concentration 1000.0 nM
[39] = molecular target: Serine/threonine-protein kinase TAO1 (Homo sapiens) (UniProt Q7L7X3); conditions: Compound concentration 1000.0 nM
[40] = molecular target: Serine/threonine-protein kinase TAO2 (Homo sapiens) (UniProt Q9UL54); conditions: Compound concentration 1000.0 nM
[41] = molecular target: Serine/threonine-protein kinase TAO3 (Homo sapiens) (UniProt Q9H2K8); conditions: Compound concentration 1000.0 nM
[42] = molecular target: Tyrosine-protein kinase receptor Tie-1 (Homo sapiens) (UniProt P35590); conditions: Compound concentration 1000.0 nM
[43] = molecular target: Serine/threonine-protein kinase ULK1 (Homo sapiens) (UniProt O75385); conditions: Compound concentration 1000.0 nM
[44] = molecular target: Mu-type opioid receptor (Homo sapiens) (UniProt P35372); conditions: Compound concentration 10.0 uM
Rattus norvegicus = species: Rattus norvegicus; conditions: Compound concentration 10.0 uM

Chain of Epidermal growth factor receptor (Homo sapiens), P00533 [UNDEFINED MUTATION] (P00533 whole entry, looked up, change not shown): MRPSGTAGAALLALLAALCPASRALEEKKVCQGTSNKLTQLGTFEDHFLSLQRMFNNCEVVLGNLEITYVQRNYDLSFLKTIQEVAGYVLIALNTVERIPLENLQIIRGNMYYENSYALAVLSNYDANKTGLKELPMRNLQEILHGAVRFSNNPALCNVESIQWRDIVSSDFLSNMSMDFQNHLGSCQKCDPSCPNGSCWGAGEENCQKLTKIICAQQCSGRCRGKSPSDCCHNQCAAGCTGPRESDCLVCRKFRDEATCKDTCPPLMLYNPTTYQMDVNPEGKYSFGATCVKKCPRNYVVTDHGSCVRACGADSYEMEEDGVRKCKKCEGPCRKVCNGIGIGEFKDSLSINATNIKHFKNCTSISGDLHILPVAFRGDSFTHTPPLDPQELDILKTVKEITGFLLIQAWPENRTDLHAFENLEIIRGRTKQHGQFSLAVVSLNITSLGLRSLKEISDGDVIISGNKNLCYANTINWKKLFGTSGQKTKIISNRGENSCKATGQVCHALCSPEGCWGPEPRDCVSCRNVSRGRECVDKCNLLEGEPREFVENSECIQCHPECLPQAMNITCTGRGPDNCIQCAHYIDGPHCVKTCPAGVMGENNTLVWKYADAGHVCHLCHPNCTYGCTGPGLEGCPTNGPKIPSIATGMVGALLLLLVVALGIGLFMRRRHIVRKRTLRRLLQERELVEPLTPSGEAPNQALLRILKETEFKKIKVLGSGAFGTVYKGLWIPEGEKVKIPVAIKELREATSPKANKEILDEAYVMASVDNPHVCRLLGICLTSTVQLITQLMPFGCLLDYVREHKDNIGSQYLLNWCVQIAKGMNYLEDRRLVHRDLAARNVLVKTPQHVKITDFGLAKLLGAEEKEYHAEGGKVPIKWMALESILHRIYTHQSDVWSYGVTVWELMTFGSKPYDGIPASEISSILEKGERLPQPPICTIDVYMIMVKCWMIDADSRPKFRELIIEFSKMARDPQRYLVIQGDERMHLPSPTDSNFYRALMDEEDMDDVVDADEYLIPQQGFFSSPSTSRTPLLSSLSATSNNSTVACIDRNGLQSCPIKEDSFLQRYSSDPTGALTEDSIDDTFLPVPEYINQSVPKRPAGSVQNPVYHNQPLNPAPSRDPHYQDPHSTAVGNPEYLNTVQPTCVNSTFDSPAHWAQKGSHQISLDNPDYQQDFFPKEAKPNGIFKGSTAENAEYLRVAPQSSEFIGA
Chain of Insulin receptor-related protein (Homo sapiens) (P14616 27-742 limits assumed): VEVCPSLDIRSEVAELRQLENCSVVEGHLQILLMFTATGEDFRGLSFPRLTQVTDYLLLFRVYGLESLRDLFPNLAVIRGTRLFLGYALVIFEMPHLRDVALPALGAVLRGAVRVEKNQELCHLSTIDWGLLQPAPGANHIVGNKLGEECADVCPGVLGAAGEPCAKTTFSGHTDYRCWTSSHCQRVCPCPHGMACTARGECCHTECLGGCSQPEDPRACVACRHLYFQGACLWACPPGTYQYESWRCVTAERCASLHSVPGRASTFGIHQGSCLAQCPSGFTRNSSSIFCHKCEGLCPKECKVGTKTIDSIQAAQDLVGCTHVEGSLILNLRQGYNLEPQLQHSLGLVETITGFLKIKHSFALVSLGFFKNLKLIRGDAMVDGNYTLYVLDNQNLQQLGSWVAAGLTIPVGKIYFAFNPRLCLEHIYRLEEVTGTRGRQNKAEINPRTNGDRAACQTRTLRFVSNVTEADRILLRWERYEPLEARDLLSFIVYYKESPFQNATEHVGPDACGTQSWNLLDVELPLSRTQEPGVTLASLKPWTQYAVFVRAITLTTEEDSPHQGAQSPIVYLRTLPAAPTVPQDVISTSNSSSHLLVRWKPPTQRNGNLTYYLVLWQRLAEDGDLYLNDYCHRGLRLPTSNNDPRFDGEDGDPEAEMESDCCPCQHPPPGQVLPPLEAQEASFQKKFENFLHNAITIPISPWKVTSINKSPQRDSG
Chain of Insulin receptor-related protein (Homo sapiens) (P14616 747-1297 limits assumed): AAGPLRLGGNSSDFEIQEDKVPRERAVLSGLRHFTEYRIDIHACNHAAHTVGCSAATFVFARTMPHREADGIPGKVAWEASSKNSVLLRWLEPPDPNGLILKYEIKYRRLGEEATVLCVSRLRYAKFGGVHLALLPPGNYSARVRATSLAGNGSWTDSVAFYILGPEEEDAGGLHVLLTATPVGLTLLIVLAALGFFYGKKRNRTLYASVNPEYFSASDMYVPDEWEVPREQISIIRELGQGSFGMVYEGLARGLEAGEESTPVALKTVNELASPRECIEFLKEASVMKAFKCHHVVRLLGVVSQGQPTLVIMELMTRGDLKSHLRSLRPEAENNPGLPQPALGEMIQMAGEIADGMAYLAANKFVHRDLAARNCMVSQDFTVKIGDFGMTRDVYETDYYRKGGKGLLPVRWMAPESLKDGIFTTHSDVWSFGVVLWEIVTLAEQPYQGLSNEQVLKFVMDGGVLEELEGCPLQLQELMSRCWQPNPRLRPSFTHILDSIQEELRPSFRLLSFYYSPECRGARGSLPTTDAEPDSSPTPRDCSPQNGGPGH
Chain of Serine/threonine-protein kinase NIM1 (Homo sapiens) (Q8IY84 whole entry): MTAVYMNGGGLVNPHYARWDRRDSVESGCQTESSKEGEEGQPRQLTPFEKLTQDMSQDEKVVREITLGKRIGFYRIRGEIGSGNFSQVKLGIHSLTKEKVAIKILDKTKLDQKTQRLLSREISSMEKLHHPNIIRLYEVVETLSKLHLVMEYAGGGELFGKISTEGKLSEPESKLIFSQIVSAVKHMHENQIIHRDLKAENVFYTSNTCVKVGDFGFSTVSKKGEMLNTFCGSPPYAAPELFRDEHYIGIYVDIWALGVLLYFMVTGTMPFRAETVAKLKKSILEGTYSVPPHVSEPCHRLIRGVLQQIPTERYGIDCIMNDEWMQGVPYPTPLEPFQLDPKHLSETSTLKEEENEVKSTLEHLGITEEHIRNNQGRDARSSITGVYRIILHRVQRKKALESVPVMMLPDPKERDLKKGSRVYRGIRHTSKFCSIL
Chain of Protein kinase C theta type (Homo sapiens) (Q04759 whole entry, looked up): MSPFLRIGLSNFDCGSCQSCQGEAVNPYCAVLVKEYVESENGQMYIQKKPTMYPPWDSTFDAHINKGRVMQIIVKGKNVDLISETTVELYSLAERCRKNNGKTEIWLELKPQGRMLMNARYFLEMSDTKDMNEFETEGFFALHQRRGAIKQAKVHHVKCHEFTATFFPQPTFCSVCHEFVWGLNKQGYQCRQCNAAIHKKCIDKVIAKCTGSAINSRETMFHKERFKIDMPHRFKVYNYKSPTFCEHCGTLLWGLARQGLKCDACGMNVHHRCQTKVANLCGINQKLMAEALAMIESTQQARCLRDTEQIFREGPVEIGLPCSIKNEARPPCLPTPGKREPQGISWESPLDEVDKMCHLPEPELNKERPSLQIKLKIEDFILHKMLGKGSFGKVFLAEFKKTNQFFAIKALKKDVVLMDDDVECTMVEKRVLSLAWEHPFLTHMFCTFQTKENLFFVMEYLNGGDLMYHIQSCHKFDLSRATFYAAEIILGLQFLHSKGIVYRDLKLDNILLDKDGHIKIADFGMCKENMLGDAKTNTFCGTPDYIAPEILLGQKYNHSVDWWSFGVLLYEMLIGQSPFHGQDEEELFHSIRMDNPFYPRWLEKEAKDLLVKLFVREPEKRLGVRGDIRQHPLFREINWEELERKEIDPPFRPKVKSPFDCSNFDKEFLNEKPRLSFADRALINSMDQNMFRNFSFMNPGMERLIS
Chain of Eukaryotic translation initiation factor 2-alpha kinase 1 (Homo sapiens) (Q9BQI3 whole entry): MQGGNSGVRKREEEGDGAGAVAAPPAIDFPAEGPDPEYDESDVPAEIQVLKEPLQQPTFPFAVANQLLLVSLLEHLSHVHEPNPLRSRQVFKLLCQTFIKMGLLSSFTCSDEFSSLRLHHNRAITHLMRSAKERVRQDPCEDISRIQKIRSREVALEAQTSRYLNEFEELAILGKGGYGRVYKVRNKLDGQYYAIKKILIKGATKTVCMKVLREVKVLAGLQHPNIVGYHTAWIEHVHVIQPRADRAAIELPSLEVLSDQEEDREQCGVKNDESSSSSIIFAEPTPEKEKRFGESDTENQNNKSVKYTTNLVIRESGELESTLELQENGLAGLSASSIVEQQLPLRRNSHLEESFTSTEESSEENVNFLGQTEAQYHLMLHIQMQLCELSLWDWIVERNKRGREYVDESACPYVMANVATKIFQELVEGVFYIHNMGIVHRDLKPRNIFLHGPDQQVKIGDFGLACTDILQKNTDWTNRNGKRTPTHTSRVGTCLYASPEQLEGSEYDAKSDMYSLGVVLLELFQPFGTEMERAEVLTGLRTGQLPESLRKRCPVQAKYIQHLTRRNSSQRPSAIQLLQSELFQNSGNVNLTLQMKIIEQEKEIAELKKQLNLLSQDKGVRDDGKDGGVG
Chain of Serine/threonine-protein kinase 17B (Homo sapiens) (O94768 whole entry): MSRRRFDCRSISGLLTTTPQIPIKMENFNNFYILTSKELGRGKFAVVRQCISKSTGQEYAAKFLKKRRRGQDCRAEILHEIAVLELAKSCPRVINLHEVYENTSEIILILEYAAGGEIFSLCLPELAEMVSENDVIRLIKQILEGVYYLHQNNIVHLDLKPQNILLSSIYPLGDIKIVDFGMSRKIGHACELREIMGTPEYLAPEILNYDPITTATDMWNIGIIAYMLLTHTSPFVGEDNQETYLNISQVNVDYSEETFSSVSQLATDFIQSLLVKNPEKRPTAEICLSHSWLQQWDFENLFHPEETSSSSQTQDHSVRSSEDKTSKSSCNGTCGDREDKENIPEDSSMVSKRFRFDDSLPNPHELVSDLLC
Chain of Aurora kinase C (Homo sapiens) (Q9UQB9 whole entry): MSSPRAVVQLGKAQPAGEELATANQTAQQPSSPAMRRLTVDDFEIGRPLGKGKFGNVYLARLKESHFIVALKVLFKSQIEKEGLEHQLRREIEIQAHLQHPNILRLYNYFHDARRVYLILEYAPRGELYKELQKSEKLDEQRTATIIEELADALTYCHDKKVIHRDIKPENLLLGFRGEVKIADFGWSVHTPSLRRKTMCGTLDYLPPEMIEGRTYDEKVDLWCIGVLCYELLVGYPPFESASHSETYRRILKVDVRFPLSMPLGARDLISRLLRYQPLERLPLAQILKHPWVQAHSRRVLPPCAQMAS

## CN(C)CC#Cc1ccc(OCCCc2sc(N3CCc4cccc(C(=O)Nc5nc6ccccc6s5)c4C3)nc2C(=O)O)c(F)c1 [A-1155463]
[1]
  residual activity: 100%
[2]
  residual activity: 100%
[3]
  residual activity: 92%
[4]
  residual activity: 100%
[5]
  residual activity: 9%
[6]
  residual activity: 92%
[7]
  residual activity: 99%
[8]
  residual activity: 100%
[9]
  residual activity: 79%
[10]
  residual activity: 100%
[11]
  residual activity: 74%
[12]
  residual activity: 96%
[13]
  residual activity: 100%
[14]
  residual activity: 72%
[15]
  residual activity: 100%
[16]
  residual activity: 98%
[17]
  residual activity: 100%
[18]
  residual activity: 98%
[19]
  residual activity: 100%
[20]
  residual activity: 100%
[21]
  residual activity: 100%
[22]
  residual activity: 90%
[23]
  residual activity: 97%
[24]
  residual activity: 91%
[25]
  residual activity: 100%
[26]
  residual activity: 97%
[27]
  residual activity: 100%
[28]
  residual activity: 100%
[29]
  residual activity: 98%
[30]
  residual activity: 79%
[31]
  residual activity: 80%
[32]
  residual activity: 92%
[33]
  residual activity: 86%
[34]
  residual activity: 100%
[35]
  residual activity: 86%
[36]
  residual activity: 100%
[37]
  residual activity: 97%
[38]
  residual activity: 100%
[39]
  residual activity: 100%
[40]
  residual activity: 100%
[41]
  residual activity: 100%
[42]
  residual activity: 85%
[43]
  residual activity: 100%
[44]
  inhibition: 15.4%
Rattus norvegicus
  inhibition: 61.1%

Source: ChEMBL document CHEMBL4507311, “Data for DCP probe A-1155463” (2021)
